Test results reported in patent US10730863B2, “Bridged bicyclic compounds as farnesoid X receptor modulators” (BRISTOL-MYERS SQUIBB COMPANY, priority 2017, dated 2020).

Molecular target: FXR (Homo sapiens (Human), UniProt Q96RI1)
Assay: FXR EC50 (FXR agonist activity reported with each example)
Assay type: cell-based

Sequence of FXR (Q96RI1 262-486): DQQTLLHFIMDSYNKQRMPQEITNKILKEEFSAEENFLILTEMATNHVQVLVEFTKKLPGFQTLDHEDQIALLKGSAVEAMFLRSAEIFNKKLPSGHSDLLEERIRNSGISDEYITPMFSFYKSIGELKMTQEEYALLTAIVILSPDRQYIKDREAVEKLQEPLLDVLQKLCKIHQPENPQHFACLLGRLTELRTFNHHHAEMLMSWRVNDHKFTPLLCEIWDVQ

EC50 [nM]	SMILES
170	O=C(O)c1ccc(OCC23CCC(OCc4c(-c5c(Cl)cncc5Cl)noc4C4CC4)(CC2)CC3)c(F)c1 [Example 276, 4-((4-((5-cyclopropyl-3-(3,5-dichloropyridin-4-yl)isoxazol-4-yl)methoxy)bicyclo[2.2.2]octan-1-yl)methoxy)-3-fluorobenzoic acid]
620	NC(=O)c1cnc(OCC23CCC(OCc4c(-c5c(Cl)cncc5Cl)noc4C4CC4)(CC2)CC3)c(C(F)(F)F)c1 [Example 278, 6-((4-((5-cyclopropyl-3-(3,5-dichloropyridin-4-yl)isoxazol-4-yl)methoxy)bicyclo[2.2.2]octan-1-yl)methoxy)-5-(trifluoromethyl)nicotinamide]
190	O=C(O)c1cnc(OCC23CCC(OCc4c(-c5c(Cl)cncc5Cl)noc4C4CC4)(CC2)CC3)c(C(F)(F)F)c1 [Example 279, 6-((4-((5-cyclopropyl-3-(3,5-dichloropyridin-4-yl)isoxazol-4-yl)methoxy)bicyclo[2.2.2]octan-1-yl)methoxy)-5-(trifluoromethyl)nicotinic acid]
23	O=C(O)c1cc(C(F)(F)F)cc(OCC23CCC(OCc4c(-c5c(Cl)cncc5Cl)noc4C4CC4)(CC2)CC3)n1 [Example 280, 6-((4-((5-cyclopropyl-3-(3,5-dichloropyridin-4-yl)isoxazol-4-yl)methoxy)bicyclo[2.2.2]octan-1-yl)methoxy)-4-(trifluoromethyl)picolinic acid]
60	COc1cc(C(=O)O)nc2ccc(OCC34CCC(OCc5c(-c6c(Cl)cncc6Cl)noc5C5CC5)(CC3)CC4)cc12 [Example 282, 6-((4-((5-cyclopropyl-3-(3,5-dichloropyridin-4-yl)isoxazol-4-yl)methoxy)bicyclo[2.2.2]octan-1-yl)methoxy)-4-methoxyquinoline-2-carboxylic acid]
8	O=C(O)c1cc(OC(F)F)c2cc(OCC34CCC(OCc5c(-c6c(Cl)cncc6Cl)noc5C5CC5)(CC3)CC4)ccc2n1 [Example 284, 6-((4-((5-cyclopropyl-3-(3,5-dichloropyridin-4-yl)isoxazol-4-yl)methoxy)bicyclo[2.2.2]octan-1-yl)methoxy)-4-(difluoromethoxy)quinoline-2-carboxylic acid]
130	O=C(O)c1ncc(OCC23CCC(OCc4c(-c5c(Cl)cncc5Cl)noc4C4CC4)(CC2)CC3)cc1C(F)(F)F [Example 285, 5-((4-((5-cyclopropyl-3-(3,5-dichloropyridin-4-yl)isoxazol-4-yl)methoxy)bicyclo[2.2.2]octan-1-yl)methoxy)-3-(trifluoromethyl)picolinic acid]
230	NC(=O)c1cc(C(F)(F)F)c2cc(OCC34CCC(OCc5c(-c6c(Cl)cncc6Cl)noc5C5CC5)(CC3)CC4)ccc2n1 [Example 291, 6-((4-((5-cyclopropyl-3-(3,5-dichloropyridin-4-yl)isoxazol-4-yl)methoxy)bicyclo[2.2.2]octan-1-yl)methoxy)-4-(trifluoromethyl)quinoline-2-carboxamide]
9	O=C(O)c1ncc(OCC23CCC(OCc4c(-c5c(Cl)cncc5Cl)noc4C4CC4)(CC2)CC3)c2ccccc12 [Example 292, 4-((4-((5-cyclopropyl-3-(3,5-dichloropyridin-4-yl)isoxazol-4-yl)methoxy)bicyclo[2.2.2]octan-1-yl)methoxy)isoquinoline-1-carboxylic acid]
16	COCc1cc(OCC23CCC(OCc4c(-c5c(Cl)cncc5Cl)noc4C4CC4)(CC2)CC3)cnc1C(=O)O [Example 293, 5-((4-((5-cyclopropyl-3-(3,5-dichloropyridin-4-yl)isoxazol-4-yl)methoxy)bicyclo[2.2.2]octan-1-yl)methoxy)-3-(methoxymethyl)picolinic acid]
32	CCOc1cc(OCC23CCC(OCc4c(-c5c(Cl)cncc5Cl)noc4C4CC4)(CC2)CC3)cnc1C(=O)O [Example 294, 5-((4-((5-cyclopropyl-3-(3,5-dichloropyridin-4-yl)isoxazol-4-yl)methoxy)bicyclo[2.2.2]octan-1-yl)methoxy)-3-ethoxypicolinic acid]
63	O=C(O)c1ccc2nc(OCC34CCC(OCc5c(-c6c(Cl)cncc6Cl)noc5C5CC5)(CC3)CC4)ccc2n1 [Example 298, 6-((4-((5-cyclopropyl-3-(3,5-dichloropyridin-4-yl)isoxazol-4-yl)methoxy)bicyclo[2.2.2]octan-1-yl)methoxy)-1,5-naphthyridine-2-carboxylic acid]
57	O=C(O)c1ncc(OCC23CCC(OCc4c(-c5c(Cl)cncc5Cl)noc4C4CC4)(CC2)CC3)cc1OCC(F)(F)F [Example 300, 5-((4-((5-cyclopropyl-3-(3,5-dichloropyridin-4-yl)isoxazol-4-yl)methoxy)bicyclo[2.2.2]octan-1-yl)methoxy)-3-(2,2,2-trifluoroethoxy)picolinic acid]
42	COc1cc(OCC23CCC(OCc4c(-c5c(Cl)cncc5Cl)noc4C4CC4)(CC2)CC3)ncc1C(=O)O [Example 301, 6-((4-((5-cyclopropyl-3-(3,5-dichloropyridin-4-yl)isoxazol-4-yl)methoxy)bicyclo[2.2.2]octan-1-yl)methoxy)-4-methoxynicotinic acid]
24	COc1cc(C(=O)O)nc2c(F)cc(OCC34CCC(OCc5c(-c6c(Cl)cncc6Cl)noc5C5CC5)(CC3)CC4)cc12 [Example 303, 6-((4-((5-cyclopropyl-3-(3,5-dichloropyridin-4-yl)isoxazol-4-yl)methoxy)bicyclo[2.2.2]octan-1-yl)methoxy)-8-fluoro-4-methoxyquinoline-2-carboxylic acid]
11	CC(C)Oc1cc(C(=O)O)nc2c(F)cc(OCC34CCC(OCc5c(-c6c(Cl)cncc6Cl)noc5C5CC5)(CC3)CC4)cc12 [Example 304, 6-((4-((5-cyclopropyl-3-(3,5-dichloropyridin-4-yl)isoxazol-4-yl)methoxy)bicyclo[2.2.2]octan-1-yl)methoxy)-8-fluoro-4-isopropoxyquinoline-2-carboxylic acid]
20	Cc1cc(C(=O)O)nc2c(F)cc(OCC34CCC(OCc5c(-c6c(Cl)cncc6Cl)noc5C5CC5)(CC3)CC4)cc12 [Example 307, 6-((4-((5-cyclopropyl-3-(3,5-dichloropyridin-4-yl)isoxazol-4-yl)methoxy)bicyclo[2.2.2]octan-1-yl)methoxy)-8-fluoro-4-methylquinoline-2-carboxylic acid]

Continued, compound first:

SMILES	EC50 [nM]
CC(C)Oc1cc(-c2noc(C34CCC(OCc5c(-c6c(Cl)cnn6C)noc5C5CC5)(CC3)CC4)n2)cc(C(=O)O)n1 [Example 274, 4-(5-(4-((3-(4-chloro-1-methyl-1H-pyrazol-5-yl)-5-cyclopropylisoxazol-4-yl)methoxy)bicyclo[2.2.2]octan-1-yl)-1,2,4-oxadiazol-3-yl)-6-isopropoxypicolinic acid]	890
COc1cc(-c2noc(C34CCC(OCc5c(-c6c(Cl)cnn6C)noc5C5CC5)(CC3)CC4)n2)cc(C(=O)O)n1 [Example 275, 4-(5-(4-((3-(4-chloro-1-methyl-1H-pyrazol-5-yl)-5-cyclopropylisoxazol-4-yl)methoxy)bicyclo[2.2.2]octan-1-yl)-1,2,4-oxadiazol-3-yl)-6-methoxypicolinic acid]	2500
O=C(O)c1cc(OCC23CCC(OCc4c(-c5c(Cl)cncc5Cl)noc4C4CC4)(CC2)CC3)ccc1F [Example 277]	47
O=C(O)c1cnc(OCC23CCC(OCc4c(-c5c(Cl)cncc5Cl)noc4C4CC4)(CC2)CC3)cc1C(F)(F)F [Example 283]	15
CS(=O)(=O)NC(=O)c1cc(C(F)(F)F)c2cc(OCC34CCC(OCc5c(-c6c(Cl)cncc6Cl)noc5C5CC5)(CC3)CC4)ccc2n1 [Example 286]	19
O=C(O)c1cc2ccc(OCC34CCC(OCc5c(-c6c(Cl)cncc6Cl)noc5C5CC5)(CC3)CC4)cc2cn1 [Example 287]	96
O=C(O)c1cc(C(F)(F)F)c2cc(OCC34CCC(OCc5c(-c6ccccc6C(F)(F)F)noc5C5CC5)(CC3)CC4)ccc2n1 [Example 288]	250
COc1cc(C(=O)O)nc2ccc(OCC34CCC(OCc5c(-c6ccccc6C(F)(F)F)noc5C5CC5)(CC3)CC4)cc12 [Example 289]	150
O=C(O)c1cc(OCC23CCC(OCc4c(-c5ccccc5C(F)(F)F)noc4C4CC4)(CC2)CC3)ccc1F [Example 290]	260
CCOc1cc(OCC23CCC(OCc4c(-c5c(Cl)cncc5Cl)noc4C4CC4)(CC2)CC3)cnc1C(N)=O [Example 295]	230
O=C(O)c1ncc(OCC23CCC(OCc4c(-c5ccccc5C(F)(F)F)noc4C4CC4)(CC2)CC3)c2ccccc12 [Example 296]	62
CCOc1cc(OCC23CCC(OCc4c(-c5ccccc5C(F)(F)F)noc4C4CC4)(CC2)CC3)cnc1C(=O)O [Example 297]	543
CCOc1cc(OCC23CCC(OCc4c(-c5ccccc5C(F)(F)F)noc4C4CC4)(CC2)CC3)cnc1C(N)=O [Example 299]	2300
O=C(O)c1ccc(OCC23CCC(OCc4c(-c5c(Cl)cncc5Cl)noc4C4CC4)(CC2)CC3)c2ncccc12 [Example 302]	54
O=C(O)c1ccc(OCC23CCC(OCc4c(-c5ccccc5C(F)(F)F)noc4C4CC4)(CC2)CC3)c2ncccc12 [Example 305]	104
CCOc1cc(C(=O)O)nc2c(F)cc(OCC34CCC(OCc5c(-c6c(Cl)cncc6Cl)noc5C5CC5)(CC3)CC4)cc12 [Example 306, 6-((4-((5-cyclopropyl-3-(3,5-dichloropyridin-4-yl)isoxazol-4-yl)methoxy)bicyclo[2.2.2]octan-1-yl)methoxy)-4-ethoxy-8-fluoroquinoline-2-carboxylic acid]	11
O=C(O)c1cc(OC2CCC2)c2cc(OCC34CCC(OCc5c(-c6c(Cl)cncc6Cl)noc5C5CC5)(CC3)CC4)cc(F)c2n1 [Example 308, 4-cyclobutoxy-6-((4-((5-cyclopropyl-3-(3,5-dichloropyridin-4-yl)isoxazol-4-yl)methoxy)bicyclo[2.2.2]octan-1-yl)methoxy)-8-fluoroquinoline-2-carboxylic acid]	12
